Data set [1] relates to mice. Nature of the data set: Hot plate test (pain threshold, mice). Type of data set: in vivo, Kunming mice. The conditions noted are these: x ± s, n = 10; for Pain thresholds before administration: hot plate 55°C, baseline before administration; for Pain thresholds after administration at 30 min / Pain thresholds after administration at 60 min / Pain thresholds after administration at 120 min / Pain thresholds after administration at 180 min / Pain thresholds after administration at 240 min: hot plate. Here is the method: Kunming mice, grade 2, female, weight of 20±2 g, purchased from the Division of Laboratory Animals, Department of Medical Sciences of Peking University, animal license No.: SCX Jing 2002-0001.
1.2.1 Solutions of huperzine A and huperzine A derivatives in normal saline water were prepared for stomach perfusion of mice.
1.2.2 Solutions of bucinnazine hydrochloride tablets, 30 mg/tablet, manufactured by Tianjin Lisheng Pharmaceutical Factory, approval No.: 0201001, in normal saline solution were prepared at a concentration of 1.5 mg/ml for stomach perfusion of mice.
A water bath was heated to a constant temperature of 55±0.5° C. The bottom of a metal plate was placed in contact with water surface. A mouse was placed on the hot plate and a timer was activated. The timer was deactivated when the mouse began licking its rear feet. The measured time was taken as the pain threshold. The pain threshold was measured two times for each mouse, and those mice whose average pain threshold was less than 30 s were qualified for the experiment.
Qualified mice were randomly divided into groups of 10. At first the pain threshold before administration of a drug was measured. Then drugs were administered as identified in Table 1. The administration volume was 0.2 ml per each 10 g of weight. Normal saline solution was administered to the control group. After administration, the pain threshold was measured at different time periods post-administration. A statistical t-test was calculated of the group interval, based on the test data.

Data set [2] relates to migraine. Briefly: Treatment of migraine with oral huperzine A (clinical cases). Type of data set: in vivo, human. Conditions: for Time from administration until headache completely disappeared: two tablets (50 μg/tablet) oral on occurrence of migraine. The protocol:
Test 2: Treatment of Migraine with Oral Huperzine A
Drug: Huperzine A Tablet (50 μg/tablet, manufactured by Henan Zhulin Zhongsheng Pharmaceutical Factory.)
Previously treated with bufferin plus, but recently reported that analgesic effects of bufferin plus have weakened.
Methods: On occurrence of migraine pains (8 times within a month), two tablets of huperzine A were administered. Within 20 minutes from administration, the headache has completely disappeared.
Patient: with a medical history of migraine of 2 years. Previously treated with ergotamine, but recently reported that analgesic effects of ergotamine have weakened.
Methods: On occurrence of migraine pains (10 times within a month), two tablets of huperzine A were administered. Within 30 minutes from administration, the headache has completely disappeared.
Patient: with a medical history of migraine of 3 years, occurring at a frequency of about 8-12 times per month.
Methods: One tablet of huperzine A was administered per day orally.

Structures are written as SMILES. Where only a bound is given, the exact number is not on record here.

Turning to `C/C=C1\[C@H]2C=C(C)C[C@]1(NC(=O)OCC(C)C)c1ccc(=O)[nH]c1C2` [Example 7, (5R,9R,11E)-5-(2-methylpropoxycarbonylamino)-11-ethylidene-5,6,9,10-tetrahydro-7-methyl-5,9-methanocycloocta[b]pyridin-2(1H)-one], the “Pain thresholds before administration” value in data set [1] (group later dosed 0.6 mg/kg by stomach perfusion) was 15.8 ± 3.97 s. In addition, in data set [1] (0.6 mg/kg stomach perfusion), the “Pain thresholds after administration at 30 min” value was 28.5 ± 2.55 s, the “Pain thresholds after administration at 60 min” value turned out to be 30.1 ± 6.90 s, the “Pain thresholds after administration at 120 min” value was found to be 27.7 ± 4.49 s and the “Pain thresholds after administration at 180 min” value came to 23.1 ± 2.41 s.

Regarding `C/C=C1\[C@H]2C=C(C)C[C@]1(N)c1ccc(=O)[nH]c1C2` [Huperzine A, (5R,9R,11E)-5-amino-11-ethylidene-5,6,9,10-tetrahydro-7-methyl-5,9-methanocycloocta[b]pyridin-2(1H)-one], the figures for the “Pain thresholds before administration” value in data set [1] (group later dosed 0.2 mg/kg by stomach perfusion) and in data set [1] (group later dosed 0.4 mg/kg by stomach perfusion) were 14.2 ± 4.49 s and 15.3 ± 2.86 s, respectively. Also, the “Pain thresholds after administration at 30 min” value is given as 13.3 ± 4.05 s in data set [1] (0.2 mg/kg stomach perfusion) and 28.4 ± 8.12 s in data set [1] (0.4 mg/kg stomach perfusion). The “Pain thresholds after administration at 60 min” value in data set [1] (0.2 mg/kg stomach perfusion) turned out to be 14.5 ± 5.08 s; in data set [1] (0.4 mg/kg stomach perfusion), 31.7 ± 10.56 s. Further, the results for the “Pain thresholds after administration at 120 min” value in data set [1] (0.2 mg/kg stomach perfusion) and in data set [1] (0.4 mg/kg stomach perfusion) were 14.2 ± 5.20 s and 27.6 ± 8.22 s, respectively. Besides, the “Pain thresholds after administration at 180 min” value is 13.3 ± 3.68 s in data set [1] (0.2 mg/kg stomach perfusion) and 25.5 ± 8.88 s in data set [1] (0.4 mg/kg stomach perfusion). Moreover, the “Pain thresholds after administration at 240 min” value is 14.6 ± 2.84 s in data set [1] (0.2 mg/kg stomach perfusion) and 27.8 ± 5.94 s in data set [1] (0.4 mg/kg stomach perfusion). For the same compound, the “Time from administration until headache completely disappeared” value in data set [2] (Case 1, migraine patient) was not above 20 min; in data set [2] (Case 2, migraine patient), not above 30 min. The “Analgesic effects over a period of one month” value in data set [2] (Case 1, two tablets (50 μg/tablet) oral per attack) is “Good analgesic effects”; in data set [2] (Case 2, two tablets (50 μg/tablet) oral per attack), “Good analgesic effects”. Moreover, the Side effects result is recorded as “Minor side effects” in data set [2] (Case 1, two tablets (50 μg/tablet) oral per attack, 8 times within a month) and “No side effects” in data set [2] (Case 2, two tablets (50 μg/tablet) oral per attack, 10 times within a month). The “Migraine attacks over the period of 1 month (prevention)” value in data set [2] (Case 3, migraine about 8-12 times per month, one tablet (50 μg) per day orally) is recorded as “did not complain of migraine attacks”. Besides, the “Effect of long-term administration on migraine attacks” value in data set [2] (long-term administration, summary statement) was “prevents migraine attacks”. Besides, in data set [2] (oral administration, summary statement), the “Effect on migraine in clinical studies” value was “alleviates and/or cures migraine”.

Source of the values: patent publication US8026251B2, “Huperzine A and its derivatives as analgesic agents” (priority 2005, dated 2011).
